From patent US20060240049A1, “Anti-protozoal compositions comprising diclazuril” (priority 2003, published 2006)

Columns and labels:
[1] = Stability of sodium diclazuril in aqueous solution; type: physicochemical; details: degrades into its keto-degradant
[2] = in water; cited from earlier work

Row | Structure (SMILES) | stability in an aqueous solution [1] | aqueous solubility, saturation concentration [2]
1 | N#CC(c1ccc(Cl)cc1)c1c(Cl)cc(-n2ncc(=O)[n-]c2=O)cc1Cl.[Na+] (centres unmarked) [sodium diclazuril] | unstable | 
2 | N#CC(c1ccc(Cl)cc1)c1c(Cl)cc(-n2ncc(=O)[nH]c2=O)cc1Cl (centres unmarked) [diclazuril] |  | below 1 μg/L
